Data set [1] concerns FVB/NJ mice. The data set can be described thus: Ovulation rate after PMSG and hCG in DHEA-fed mice. The format is in vivo, mouse. The source says:
(§1) Female FVB/NJ mice were obtained from Jackson Laboratories (Bar Harbor, Me., USA). Regular rodent chow was supplemented with DHEA at 0.01%, 0.1% and 0.6% w/w. Three-week-old mice had access to food and water ad libitum. Mice were fed control or DHEA-supplemented chow for two weeks. The Animal Studies Committee at Washington University School of Medicine reviewed and approved all animal experiments. Animals were maintained according to the Guide for the Care and Use of Laboratory Animals provided by the Institute for Laboratory Animal Research.
COCs were collected following superovulation with PMSG. Ovaries were removed and placed in M2 media (Sigma, St. Louis, Mo., USA). COCs were obtained by rupture of antral follicles with a syringe and needle. To collect denuded germinal vesicle (GV) oocytes, the cumulus cells were removed by gentle pipetting. The oviducts were removed from PMSG- and hCG-primed mice. The ampulla of the oviduct was punctured to release the clutch of ovulated oocytes 24 hr after hCG.

In another data set the test system is ICR female mice. The data set can be described thus: Intrauterine DHEA or 6-AN pellet and pregnancy outcome. In kind it is in vivo, mouse. How it is done: ICR female mice had either placebo (n=26), DHEA (1.5 mg/60 days)(n=20), or 6-AN pellets (150, 15, 1.5 mcg/60 days)(n=24) placed into the uterine horn after index delivery. Females were then mated and litter size was measured over the following 120 days post pellet. Mice were housed according to the Institutional Animal Care and use Committee and NIH guidelines. Day to first litter, number of litters, number of pups, average pups/litter were recorded. Serum DHEA levels were quantified (Alpco, Salem, N.H.). All pellets (placebo, DHEA, 6-AN) were custom-formulated (Innovative Research, Inc).

A short description of data set [2]: Artificially induced deciduoma in ovariectomized mice. The following applies: female, FVB/NJ, mouse, serum, subcutaneous, 2 mg/100 g of body weight; measured on day +5; DHEA-treated group; read-out: Serum DHEA levels. The format is in vivo, mouse. On the procedure:
(§2) This induced deciduoma model allowed the study of the effect of increased DHEA on implantation independently of embryo development and ovarian function. Female mice 6-8 weeks of age were ovariectomized and rested for 2 weeks. […] At day 2 before induction, the experimental mice also began receiving DHEA at 2 mg/100 g of body weight. The control mice received no DHEA. At day 0, one uterine horn in each animal was subjected to a physical stimulus, 100 μL sesame seed oil injection, to induce a deciduoma. The second horn was left as the unstimulated internal control for each mouse. Day 0 in this case is equivalent to the day of embryo implantation in a physiological mouse pregnancy, which is 4 days post coitus. Five days after the oil injection, uterine horns were dissected out. First the gross anatomies of the uteri were assessed. Representative tissues from two mice in each treatment group are shown (FIG. 7B). […] Protein was isolated from all uterine horns in order to measure the expression of a well-established decidualization protein marker, Bmp2. […] Bmp2 expression was almost undetectable in the unstimulated uterine horns. […] In the same line of experiments, the serum hormone levels were also measured to confirm that findings were strictly the result of increased levels of DHEA.
(§3) Decidualization in vivo under chronically elevated levels of DHEA was also tested. The ovariectomy mouse model described above was used with the following changes: DHEA was administered orally (0.6% supplementation in regular chow diet) starting on the day of ovariectomy. The mice were on the diet for 2 weeks prior to the beginning of the hormone regiments described in FIG. 7A. In FIG. 8A, representative uterine horns are shown from control mice (receiving regular chow) and the treatment mice on 0.6% DHEA diet. […] A quantitative analysis of the decidual reaction in shown in FIG. 8B, where the mass of the uterine horns is shown. Lastly, it should be noted that ovariectomised mice, similar to post-menopausal women, tend to have increased body fat percentage.
(§4) To generate deciduomas 7-8 wk-old female FVB/NJ mice were used and treated as described previously. A time line of the hormone administrations is presented in FIG. 7a, adapted from Herington et al. Briefly, mice were ovariectomized and allowed 2 weeks for recovery. They were then injected with 100 ng 17b-estradiol (E2) (Sigma) for three days, rested two days, and then injected with 10 ng E2/1 μg Progesterone (P4, Sigma) for three days. […] Immediately following the last of the above sensitization injections, the right uterine horn received an intra-luminal injection of 100 μL of sunflower seed oil. Mice continued to receive 1 μg P4 subcutaneously for up to 4 days. Mice receiving the DHEA treatment received […] starting on the day the E2/P4 injections were begun and continued for the 7 days following, until mice were sacrificed. On the day following the last injection, serum samples were collected, the mice were sacrificed and uterine horns dissected out. Serum DHEA, E2 and P4 levels were analyzed by ELISA assays (Alpco Immunoassays).

The subject of data set [3] is FVB/NJ mice. The description is as above. The format is in vivo, mouse. How it is done: as §2, §3, §4
For data set [4], the system named is FVB/NJ mice. As to the kind of experiment: Serum hormone concentration in DHEA-fed mice (ELISA). The format is in vivo, mouse.
Description: as §1
Control and DHEA-fed mice were superovulated with 10 IU pregnant mare serum gonadotropin (PMSG) by i.p. injection. DHEA, estradiol and testosterone serum concentrations were measured 48 hours later. For progesterone concentrations, mice were given an i.p. injection of 10 IU hCG 48 hours after PMSG and blood was collected 24 hours later. Mice were anesthetized with 50 μl ketamine and xylazine (1:1) and blood was collected by cardiac puncture. Serum was separated by centrifugation and stored at −20° C. ELISA assays were used to determine serum hormone concentrations (Alpco, Salem, N.H., USA).
In general terms: In an ELISA, binding on a coated surface is turned into a signal by an enzyme label.

A further data set deals with human primary ESCs. As to the kind of experiment: In vitro decidualization of human primary ESCs (decidualization marker mRNA). The format is cell-based. Particulars: 9 days in decidualization media. The source says:
In order to confirm that this is not a side effect of ESC immortalization with telomerase overexpression in this human cell line, the effect of DHEA on decidualization of primary ESC cultures from mouse and human uteri was also investigated. Murine ESCs were isolated from the gravid uterus at 4 days post coitus and cultured in vitro for 3 days to induce decidualization as described in the Methods. […] The human primary ESCs were isolated from uteri following hysterectomy for benign disease as outlined in the Methods and cultured in decidualization media for 9 days.
Control samples received 0.1% ethanol vehicle control.

For the molecule `C[C@]12CC[C@H](O)CC1=CC[C@@H]1[C@@H]2CC[C@]2(C)C(=O)CC[C@@H]12` [DHEA, dehydroepiandrosterone], the results for the “Number of ovulated oocytes” value in the data set on FVB/NJ mice [1] (0.01% DHEA diet), in the data set on FVB/NJ mice [1] (0.1% DHEA diet) and in the data set on FVB/NJ mice [1] (0.6% DHEA diet) were 10.8±2.8, 15±1.9 and 7.1±1.4, respectively. In addition, in the data set with ICR female mice (DHEA pellet group, controls 0.265), the “Mean serum levels of DHEA” value was determined as 0.512 ng/mL. Also, the Average pups/litter in the data set with ICR female mice (DHEA pellet, after 60 days, control 12.3) is 10.3 pups/litter; in the data set on ICR female mice (DHEA pellet, first litter, control 13.0), 5.9 pups/litter. Besides, the “Reduction of average pups/litter size” value with ICR female mice (DHEA pellet, first litter after placement of the pellet) is reported as 55%. Moreover, in the data set on ICR female mice (intrauterine pellet: DHEA 1.5 mg/60 days, 6-AN 150, 15, 1.5 mcg/60 days, controls 27 days), the “Average time to first litter” value amounted to 34 days. Also, the concentration at 5 day (after oil injection on day 0) in data set [2] turned out to be 32.6 ng/mL. Moreover, the “Deciduoma formation under chronic DHEA” value in the data set with FVB/NJ mice [3] (0.6% DHEA in chow, oral, from day of ovariectomy) is “no difference between the stimulated and unstimulated uterine horns”. Further, the “Decrease in Bmp2 protein induction in deciduomas vs control mice (Western blot)” value in the data set with FVB/NJ mice [3] (DHEA 2 mg/100 g of body weight) is 3 fold. Moreover, the “Decrease in the decidual response by uterine mass vs controls” value in the data set on FVB/NJ mice [3] (DHEA 2 mg/100 g of body weight) is about 3 fold. In addition, the “Morphology of uterine cross sections of stimulated horns” value in the data set on FVB/NJ mice [3] (DHEA 2 mg/100 g of body weight) is recorded as “no decidual cells”. In addition, the “Gross deciduoma formation along the stimulated uterine horn” value with FVB/NJ mice [3] (DHEA 2 mg/100 g of body weight from day 2 before induction, 5 days after oil injection) was “weak, if any, deciduoma formation”. In addition, the “Increase in DHEA serum levels” value in the data set on FVB/NJ mice [4] (0.01% DHEA supplementation) is 1.9 fold. Also, the “Serum DHEA” value with FVB/NJ mice [4] (DHEA diets 0.01%, 0.1%, 0.6%, 48 hours after PMSG) was “elevated in the DHEA-fed mice in a dose-dependent fashion”. The “Expression of PRL and IGFBP1” value in the data set on human primary ESCs is on record as “decreased in a concentration dependent manner”.

For the origin of these results see US9381193B2, “Contraceptive methods and compositions” (WASHINGTON UNIVERSITY, priority 2011, dated 2016).
